# Assay results from patent US11180474B2 (BRISTOL-MYERS SQUIBB COMPANY, priority 2016, dated 2021).
# How the values were obtained:
# human TLR7 = target: T1, human TLR7 (Homo sapiens, UniProt Q9NYK1); assay: TLR7 inhibition reporter assay (HEK-Blue cells, SEAP reporter, gardiquimod stimulation); type: cell-based; conditions: HEK-Blue cells overexpressing human TLR7, gardiquimod 7.5 μM
# T1 construct: host or cells: HEK-Blue cells
# T1 sequence (Q9NYK1 27-1049): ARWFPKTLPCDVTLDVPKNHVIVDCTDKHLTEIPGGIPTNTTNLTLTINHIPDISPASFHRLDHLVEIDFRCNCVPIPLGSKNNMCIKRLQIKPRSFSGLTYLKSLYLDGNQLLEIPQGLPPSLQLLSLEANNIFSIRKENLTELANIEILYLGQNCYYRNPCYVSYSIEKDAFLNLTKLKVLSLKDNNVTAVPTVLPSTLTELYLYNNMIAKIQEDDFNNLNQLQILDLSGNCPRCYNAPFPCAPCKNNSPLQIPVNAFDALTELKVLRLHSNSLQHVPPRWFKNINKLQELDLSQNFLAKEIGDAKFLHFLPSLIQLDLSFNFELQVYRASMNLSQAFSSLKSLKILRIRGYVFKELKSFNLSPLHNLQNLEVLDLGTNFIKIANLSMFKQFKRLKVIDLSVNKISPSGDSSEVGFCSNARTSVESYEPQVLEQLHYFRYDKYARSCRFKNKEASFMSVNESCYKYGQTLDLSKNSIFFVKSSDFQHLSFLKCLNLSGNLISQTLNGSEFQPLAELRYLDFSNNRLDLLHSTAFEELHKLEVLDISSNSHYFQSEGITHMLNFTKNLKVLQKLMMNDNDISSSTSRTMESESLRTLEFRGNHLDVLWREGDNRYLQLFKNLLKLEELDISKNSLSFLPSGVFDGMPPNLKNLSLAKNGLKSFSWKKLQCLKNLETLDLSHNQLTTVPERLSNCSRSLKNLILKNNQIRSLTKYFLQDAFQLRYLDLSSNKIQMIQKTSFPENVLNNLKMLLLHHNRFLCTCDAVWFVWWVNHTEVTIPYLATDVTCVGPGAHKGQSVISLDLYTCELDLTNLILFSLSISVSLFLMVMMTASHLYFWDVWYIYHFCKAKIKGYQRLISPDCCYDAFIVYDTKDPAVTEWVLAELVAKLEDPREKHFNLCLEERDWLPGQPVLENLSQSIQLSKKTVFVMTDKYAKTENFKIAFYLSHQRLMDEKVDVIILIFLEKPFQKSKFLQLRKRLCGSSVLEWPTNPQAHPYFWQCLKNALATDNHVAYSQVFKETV
# How it was run: (§1)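 Cells (15000/well for TLR7, 20,000 for TLR8) were treated with compounds over 0.05 nM-50 μM final. After 22 h at 37° C, 5% CO2, SEAP was measured with HEK-Blue Detection reagent; percent inhibition was taken as reduction of agonist-plus-DMSO signal relative to a known inhibitor.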
# human TLR8 = target: T2, human TLR8 (Homo sapiens, UniProt Q9NR97); assay: TLR8 inhibition reporter assay (HEK-Blue cells, SEAP reporter, R848 stimulation); type: cell-based; conditions: HEK-Blue cells overexpressing human TLR8, R848 15.9 μM
# T2 construct: host or cells: HEK-Blue cells
# T2 sequence (Q9NR97 27-1041): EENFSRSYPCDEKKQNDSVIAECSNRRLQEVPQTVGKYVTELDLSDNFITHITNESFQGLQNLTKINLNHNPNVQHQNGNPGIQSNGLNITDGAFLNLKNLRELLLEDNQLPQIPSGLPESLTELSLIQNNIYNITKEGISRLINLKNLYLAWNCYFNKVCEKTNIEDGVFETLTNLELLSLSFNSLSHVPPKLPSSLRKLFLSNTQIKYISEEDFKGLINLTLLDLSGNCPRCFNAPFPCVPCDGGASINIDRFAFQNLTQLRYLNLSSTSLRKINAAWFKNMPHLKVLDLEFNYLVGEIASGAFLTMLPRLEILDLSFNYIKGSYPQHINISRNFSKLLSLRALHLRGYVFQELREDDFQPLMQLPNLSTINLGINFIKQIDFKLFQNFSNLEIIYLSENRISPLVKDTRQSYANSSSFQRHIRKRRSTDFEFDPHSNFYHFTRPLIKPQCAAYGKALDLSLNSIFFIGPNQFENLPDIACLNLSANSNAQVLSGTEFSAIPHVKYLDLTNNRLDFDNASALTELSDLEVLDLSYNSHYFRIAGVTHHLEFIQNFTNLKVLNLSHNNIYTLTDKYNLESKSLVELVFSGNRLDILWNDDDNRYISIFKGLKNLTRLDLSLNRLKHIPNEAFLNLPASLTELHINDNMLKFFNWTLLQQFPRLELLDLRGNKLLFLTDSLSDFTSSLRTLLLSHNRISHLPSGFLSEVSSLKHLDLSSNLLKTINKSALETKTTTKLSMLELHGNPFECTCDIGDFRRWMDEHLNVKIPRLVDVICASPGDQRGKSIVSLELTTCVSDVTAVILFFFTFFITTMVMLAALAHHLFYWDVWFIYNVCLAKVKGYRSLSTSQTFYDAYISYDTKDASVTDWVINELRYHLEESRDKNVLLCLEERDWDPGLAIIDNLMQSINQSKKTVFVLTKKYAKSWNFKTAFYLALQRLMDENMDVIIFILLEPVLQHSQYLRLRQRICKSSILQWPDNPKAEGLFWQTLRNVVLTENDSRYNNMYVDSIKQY
# How it was run: as §1
IC50 (human TLR7) [nM],IC50 (human TLR8) [nM],SMILES
11,35,"CNCC(=O)N1CCC(c2ccc3[nH]c(-c4ccc(OC)c(OC)c4)c(C(C)C)c3c2)CC1 [Example 256, 1-(4-(2-(3,4-dimethoxyphenyl)-3-isopropyl-1H-indol-5-yl)piperidin-1-yl)-2-(methylamino)ethan-1-one]"
38,82,"COc1ccc(-c2[nH]c3ccc(C4CCNCC4O)cc3c2C(C)C)cc1OC (single isomer, unassigned) [Example 317, 4-(2-(3,4-dimethoxyphenyl)-3-isopropyl-1H-indol-5-yl)piperidin-3-ol 2,2,2-trifluoroacetate]"
46,27,"CCN(CC)C(=O)C1CCCN(CC(=O)N2CCC(c3ccc4[nH]c(-c5ccc(OC)c(OC)c5)c(C(C)C)c4c3)CC2)C1 (stereo not drawn) [Example 224, 1-(2-(4-(2-(3,4-dimethoxyphenyl)-3-isopropyl-1H-indol-5-yl)piperidin-1-yl)-2-oxoethyl)-N,N-diethylpiperidine-3-carboxamide]"
40,18,"COc1ccc(-c2[nH]c3ccc(C4CCN(C(=O)CN5CCC[C@@H](C(=O)N6CCN(C(C)C)CC6)C5)CC4)cc3c2C(C)C)cc1OC [Example 302, (R)-1-(4-(2-(3,4-dimethoxyphenyl)-3-isopropyl-1H-indol-5-yl)piperidin-1-yl)-2-(3-(4-isopropylpiperazine-1-carbonyl)piperidin-1-yl)ethan-1-one]"
40,11,"COc1ccc(-c2[nH]c3ccc(C4CCN(Cc5cnn(C)c5)CC4)cc3c2C(C)C)cc1OC [Example 259, 2-(3,4-dimethoxyphenyl)-3-isopropyl-5-(1-((1-methyl-1H-pyrazol-4-yl)methyl)piperidin-4-yl)-1H-indole]"
73,496,"COc1ccc(-c2[nH]c3ccc(C4CCN(C(=O)CO)CC4)cc3c2C(C)C)cc1OC [Example 313, 1-(4-(2-(3,4-dimethoxyphenyl)-3-isopropyl-1H-indol-5-yl)piperidin-1-yl)-2-hydroxyethanone]"
29,38,"COc1ccc(-c2[nH]c3ccc(C4CCN(C(=O)CNC5CCCC5O)CC4)cc3c2C(C)C)cc1OC (stereo not drawn) [Example 236, 1-(4-(2-(3,4-dimethoxyphenyl)-3-isopropyl-1H-indol-5-yl)piperidin-1-yl)-2-((2-hydroxycyclopentyl)amino)ethan-1-one]"
1740,803,"COc1ccc(-c2[nH]c3ccc(C4CCN(C(=O)CN5CCC[C@H](C(=O)N6CCN(c7cccc(C(F)(F)F)c7)CC6)C5)CC4)cc3c2C(C)C)cc1OC [Example 290, (S)-1-(4-(2-(3,4-dimethoxyphenyl)-3-isopropyl-1H-indol-5-yl)piperidin-1-yl)-2-(3-(4-(3-(trifluoromethyl)phenyl)piperazine-1-carbonyl)piperidin-1-yl)ethan-1-one]"
172,63,"COc1ccc(-c2[nH]c3ccc(C4CCN(C(=O)CN[C@@H](CO)CC(C)C)CC4)cc3c2C(C)C)cc1OC [Example 234, (R)-1-(4-(2-(3,4-dimethoxyphenyl)-3-isopropyl-1H-indol-5-yl)piperidin-1-yl)-2-((1-hydroxy-4-methylpentan-2-yl)amino) ethan-1-one]"
27,26,"COc1ccc(-c2[nH]c3ccc(C4CCN(C(=O)CN5CCC[C@@H](C(=O)N6CCC(N(C)C)CC6)C5)CC4)cc3c2C(C)C)cc1OC [Example 305, (R)-1-(4-(2-(3,4-dimethoxyphenyl)-3-isopropyl-1H-indol-5-yl)piperidin-1-yl)-2-(3-(4-(dimethylamino)piperidine-1-carbonyl)piperidin-1-yl)ethan-1-one]"
21,17,"COc1ccc(-c2[nH]c3ccc(C4CCN(C(=O)CN5CCCC(CO)C5)CC4)cc3c2C(C)C)cc1OC (stereo not drawn) [Example 249, 1-(4-(2-(3,4-dimethoxyphenyl)-3-isopropyl-1H-indol-5-yl)piperidin-1-yl)-2-(3-(hydroxymethyl)piperidin-1-yl)ethan-1-one]"
28,33,"COc1ccc(-c2[nH]c3ccc(C4CCN(C(=O)CN5CCC[C@H](C(=O)N6CCN(CCN7CCCC7)CC6)C5)CC4)cc3c2C(C)C)cc1OC [Example 293, (S)-1-(4-(2-(3,4-dimethoxyphenyl)-3-isopropyl-1H-indol-5-yl)piperidin-1-yl)-2-(3-(4-(2-(pyrrolidin-1-yl)ethyl)piperazine-1-carbonyl)piperidin-1-yl)ethan-1-one]"
36,17,"COc1ccc(-c2[nH]c3ccc(C4CCN(C(=O)CN5CCC[C@H](C(=O)N6CCC(CCO)CC6)C5)CC4)cc3c2C(C)C)cc1OC [Example 291, (S)-1-(4-(2-(3,4-dimethoxyphenyl)-3-isopropyl-1H-indol-5-yl)piperidin-1-yl)-2-(3-(4-(2-hydroxyethyl)piperidine-1-carbonyl)piperidin-1-yl)ethan-1-one]"
18,17,"COc1ccc(-c2[nH]c3ccc(C4CCN(Cc5cncn5C)CC4)cc3c2C(C)C)cc1OC [Example 258, 2-(3,4-dimethoxyphenyl)-3-isopropyl-5-(1-((1-methyl-1H-imidazol-5-yl)methyl)piperidin-4-yl)-1H-indole]"
495,1160,"COc1ccc(-c2[nH]c3ccc(C4CCN(CC(=O)N[C@H]5CC[C@H](C(C)(C)O)CC5)CC4)cc3c2C(C)C)cc1OC [Example 279, 2-(4-(2-(3,4-dimethoxyphenyl)-3-isopropyl-1H-indol-5-yl)piperidin-1-yl)-N-((1r,4r)-4-(2-hydroxypropan-2-yl)cyclohexyl)acetamide]"
66,19,"COc1ccc(-c2[nH]c3ccc(C4CCN(C(=O)CN5CCC[C@H](C(=O)N6CC[C@H](O)C6)C5)CC4)cc3c2C(C)C)cc1OC [Example 301, 1-(4-(2-(3,4-dimethoxyphenyl)-3-isopropyl-1H-indol-5-yl)piperidin-1-yl)-2-((S)-3-((S)-3-hydroxypyrrolidine-1-carbonyl)piperidin-1-yl)ethan-1-one]"
47,27,"COc1ccc(-c2[nH]c3ccc(C4CCN(C(=O)CN5CCC[C@H](C(=O)NCC(N)=O)C5)CC4)cc3c2C(C)C)cc1OC [Example 298, (S)—N-(2-amino-2-oxoethyl)-1-(2-(4-(2-(3,4-dimethoxyphenyl)-3-isopropyl-1H-indol-5-yl)piperidin-1-yl)-2-oxoethyl)piperidine-3-carboxamide]"
3280,6070,"COc1ccc(-c2[nH]c3ccc(C4CCNCC4O)cc3c2C(C)C)cc1OC (single isomer, unassigned) [Example 318, 4-(2-(3,4-dimethoxyphenyl)-3-isopropyl-1H-indol-5-yl)piperidin-3-ol 2,2,2-trifluoroacetate]"
